Source: patent US20230054194A1, “Methods of Treating Cancer” (ARIAGEN, INC., priority 2018, published 2023)

How the values were obtained:
CT26 = assay: CT-26 subcutaneous syngeneic colon cancer mouse model (Study 4), tumor growth inhibition; type: in vivo, mouse (BALB/C); details: for TGI(%) / Tumor size (Mean ± SEM): CT-26 model, i.p., ARI compounds 160 mg/kg QD × 15 doses, Anti-PD-1 10 BIW × 5 doses, study end day Day 23
Experimental: (§1) In this example, the in vivo anti-tumor efficacy of ARI-001, ARI-002, ARI-003, and ARI-143 and their combinations with an anti-PD-1 antibody was evaluated using a panel of twelve subcutaneous syngeneic mouse tumor models.
(§2) Eleven subcutaneous syngeneic mouse tumor models were generated by innoculating female BALB/C or C57BL/6 mice with cancer cells at their right lower or right front flank followed by randomization as detailed in Table 4 below.
(§3) A solution of a rat monoclonal anti-mouse PD-1 antibody (isotype IgG2a, κ) at a concentration of 6.61 mg/ml was obtained from BioXcell (InVivoMAb anti-mouse PD-1 (CD279), Clone RMP1-14, Cat #BE0146)) and store at 4° C. The antibody solution was diluted with PBS to obtain a 1 mg/ml dosing solution.
(§4) ARI-001, ARI-002, and ARI-003 powder was stored at −20° C. The powder of each compound was dissolved in DMSO to obtain dosing solutions at 106.7, 80, and 53.33 mg/ml for administration to mice at 160, 120, and 80 mg/kg, respectively. ARI-143 was similarly prepared.
(§5) Twelve studies using the twelve subcutaneous syngeneic mouse tumor models were performed. In each study, 80 mice were enrolled and randomly allocated to eight different study groups, with 10 mice in each study group. The mean tumor size at randomization was approximately 80-120 mm^3 (around 100 mm^3). Randomization was performed based on “Matched distribution” randomization method (StudyDirector™ software, version 3.1.399.19). […] All the drugs and vehicle controls were injected to the mice intraperitoneally.
(§6) After tumor cell inoculation, the animals were checked daily for morbidity and mortality. At the time of routine monitoring, the animals were checked for any effects of tumor growth and treatments on behavior such as mobility, food and water consumption, body weight gain/loss (body weights were measured twice or three times per week after randomization), and any other abnormalities. Mortality and observed clinical signs were recorded for individual animals. Tumor volumes were measured twice or three times weekly after randomization in two dimensions using a caliper, and the volume was expressed in mm^3 using the formula: […]
(§7) where V is tumor volume, L is tumor length (the longest tumor dimension) and W is tumor width (the longest tumor dimension perpendicular to L).
(§8) The study was terminated when the mean tumor volume (MTV) in the vehicle group reached a value of 2,000 mm^3. Tumor growth inhibition (TGI) is an indication of antitumor activity, and expressed as: […]
(§9) where T and C are the MTV (or weight) of the treated and control groups, respectively, on a given day. Statistical analysis of the difference in MTV among the groups was conducted using the data collected on the day when the MTV of the vehicle group reached the humane endpoints, so that TGI could be derived for all or most mice enrolled in the study.
(§10) Statistical analysis of differences in MTV among the groups was conducted by Independent-Samples T Test using the data collected. All data were analyzed with SPSS (Statistical Product and Service Solutions) version 18.0 (IBM, Armonk, N.Y., U.S.). P-values were rounded to three decimal places, with the exception that raw P-values less than 0.001 were stated as P<0.001. All tests were two-sided. P<0.05 was considered to be statistically significant.
FIG. 63 is a graph showing the mean tumor volume on different study days in the study groups as indicated according to Study 4 (CT-26). The study end day was Day 23.

A20 = A20 subcutaneous syngeneic lymphoma mouse model (Study 5), tumor growth inhibition; type: in vivo, mouse (BALB/C); details: for TGI(%) / Tumor size (Mean ± SEM): A20 model, i.p., ARI compounds 160 mg/kg QD × 14 doses, Anti-PD-1 10 BIW × 4 doses, study end day Day 26
Experimental: as §1, §2, §3, §4, §5, §6, §7, §8, §9, §10
FIG. 64 is a graph showing the mean tumor volume on different study days in the study groups as indicated according to Study 5 (A20). The study end day was Day 26.

LL/2 = LL/2 subcutaneous syngeneic lung cancer mouse model (Study 6), tumor growth inhibition; type: in vivo, mouse (C57BL/6); details: for Tumor size / TGI(%): LL/2 model, study end day Day 32; for Tumor size: Mean ± SEM, in mm³; for anti-tumor potency of anti-PD-1 antibody combined with the compound, compared to the antibody alone or the vehicle: LL/2 syngeneic lung cancer model
Experimental: as §1, §2, §3, §4, §5, §6, §7, §8, §9, §10
FIG. 65 is a graph showing the mean tumor volume on different study days in the study groups as indicated according to Study 6 (LL/2). The study end day was Day 32.

| Structure (SMILES) | TGI(%) (CT26) | Tumor size (Mean ± SEM) (CT26) [mm^3] | TGI(%) (A20) | Tumor size (Mean ± SEM) (A20) [mm^3] | Tumor size (LL/2) | TGI(%) (LL/2) | anti-tumor potency of anti-PD-1 antibody combined with the compound, compared to the antibody alone or the vehicle (LL/2) | anti-tumor potency of anti-PD-1 antibody combined with the compound, compared to the antibody alone (CT26; CT-26 syngeneic colon cancer model) | anti-tumor potency of the compound combined with anti-PD-1 antibody, compared to being used alone (A20; A20 syngeneic lymphoma tumor model) |
| --- | --- | --- | --- | --- | --- | --- | --- | --- | --- |
| COC(=O)c1csc(C(=O)c2c[nH]c3ccccc23)n1 [ARI-001] | 56 | 1015.32 ± 114.50 | 55 | 1190.08 ± 205.09 | 881.1 ± 93.59 | 60 | statistically significant increase |  |  |
| CCC(=O)c1csc(C(=O)c2c[nH]c3ccccc23)n1 [ARI-002] | 51 | 1112.29 ± 124.36 | 45 | 1446.75 ± 149.90 | 837.75 ± 117.58 | 62 | statistically significant increase | statistically significant increase | statistically significant increase |
